Laboratory results published in article PMC11790914, “Chemogenomics for steroid hormone receptors (NR3)” (Communications Chemistry, 2025).
Where “and” joins values, the source holds several entries; their conditions need not be identical. Identical values can stand only once.

Columns and labels:
ABL1 = biological target: T1, ABL1 (Homo sapiens, UniProt P00519); assay: Liability panel screening by DSF: ABL1; assay type: binding; settings: DSF, 20 µM, n=2; read-out: Mean ΔTM ABL1
T1 construct: made in house
T1 sequence (P00519 whole entry, species assumed): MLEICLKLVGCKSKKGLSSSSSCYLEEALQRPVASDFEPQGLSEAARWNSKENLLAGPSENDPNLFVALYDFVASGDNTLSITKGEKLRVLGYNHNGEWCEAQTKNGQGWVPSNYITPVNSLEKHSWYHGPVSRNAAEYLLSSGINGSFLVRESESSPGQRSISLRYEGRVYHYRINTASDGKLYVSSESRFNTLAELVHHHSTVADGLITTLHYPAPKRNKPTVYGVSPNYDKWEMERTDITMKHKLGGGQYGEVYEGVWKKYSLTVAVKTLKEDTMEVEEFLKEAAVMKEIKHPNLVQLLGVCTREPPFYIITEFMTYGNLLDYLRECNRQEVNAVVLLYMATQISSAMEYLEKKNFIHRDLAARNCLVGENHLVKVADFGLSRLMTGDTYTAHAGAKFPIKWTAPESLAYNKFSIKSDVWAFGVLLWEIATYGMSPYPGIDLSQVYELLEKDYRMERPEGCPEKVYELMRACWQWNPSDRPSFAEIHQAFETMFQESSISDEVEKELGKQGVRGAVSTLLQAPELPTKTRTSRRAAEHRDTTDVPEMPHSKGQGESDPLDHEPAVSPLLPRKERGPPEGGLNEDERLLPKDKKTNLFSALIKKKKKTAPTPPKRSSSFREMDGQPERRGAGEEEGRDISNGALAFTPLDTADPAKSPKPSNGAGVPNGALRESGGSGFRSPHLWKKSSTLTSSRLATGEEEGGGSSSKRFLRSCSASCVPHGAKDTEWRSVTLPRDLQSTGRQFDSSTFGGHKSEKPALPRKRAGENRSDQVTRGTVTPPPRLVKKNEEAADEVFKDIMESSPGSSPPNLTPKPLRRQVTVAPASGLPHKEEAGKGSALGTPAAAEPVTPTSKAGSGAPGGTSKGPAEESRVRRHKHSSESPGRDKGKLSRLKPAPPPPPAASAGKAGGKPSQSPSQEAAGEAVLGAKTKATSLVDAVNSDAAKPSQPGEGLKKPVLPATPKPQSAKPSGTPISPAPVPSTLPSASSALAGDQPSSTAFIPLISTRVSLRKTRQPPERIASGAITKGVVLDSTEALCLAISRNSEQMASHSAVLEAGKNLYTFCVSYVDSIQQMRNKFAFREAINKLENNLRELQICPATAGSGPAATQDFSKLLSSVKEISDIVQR
In short: (§1)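 ∆Tm in K was taken from Boltzmann-fitted unfolding inflection points, run in duplicate with a temperature ramp of 3 °C per minute up to 85 °C. Each recombinant protein (2 µM) was in HEPES 10 mM pH 7.5 and NaCl 500 mM, with SYPRO Orange dye at 1:1000.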

AURKA = biological target: T2, AURKA (Homo sapiens, UniProt O14965); assay: Liability panel screening by DSF: AURKA; assay type: binding; settings: DSF, 20 µM, n=2; read-out: Mean ΔTM AURKA
T2 construct: made in house
T2 sequence (O14965 1-403): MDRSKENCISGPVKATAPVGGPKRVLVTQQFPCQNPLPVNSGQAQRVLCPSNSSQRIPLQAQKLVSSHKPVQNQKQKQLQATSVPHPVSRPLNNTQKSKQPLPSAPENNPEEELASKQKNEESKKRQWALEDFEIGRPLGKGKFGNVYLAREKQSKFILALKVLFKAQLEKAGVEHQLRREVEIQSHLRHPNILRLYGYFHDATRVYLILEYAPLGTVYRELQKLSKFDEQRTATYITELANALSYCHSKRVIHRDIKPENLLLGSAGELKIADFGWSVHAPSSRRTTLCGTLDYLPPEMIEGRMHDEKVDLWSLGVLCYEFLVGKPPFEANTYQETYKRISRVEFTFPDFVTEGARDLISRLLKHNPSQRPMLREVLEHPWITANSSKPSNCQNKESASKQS
In short: as §1

CDK2 = biological target: T3, CDK2 (Homo sapiens, UniProt P24941); assay: Liability panel screening by DSF: CDK2; assay type: binding; settings: DSF, 20 µM, n=2; read-out: Mean ΔTM CDK2
T3 construct: made in house
In short: as §1

FGFR3 = biological target: T4, FGFR3 (Homo sapiens, UniProt P22607); assay: Liability panel screening by DSF: FGFR3; assay type: binding; settings: DSF, 20 µM, n=2; read-out: Mean ΔTM FGFR3
T4 construct: made in house
T4 sequence (P22607 23-806, species assumed): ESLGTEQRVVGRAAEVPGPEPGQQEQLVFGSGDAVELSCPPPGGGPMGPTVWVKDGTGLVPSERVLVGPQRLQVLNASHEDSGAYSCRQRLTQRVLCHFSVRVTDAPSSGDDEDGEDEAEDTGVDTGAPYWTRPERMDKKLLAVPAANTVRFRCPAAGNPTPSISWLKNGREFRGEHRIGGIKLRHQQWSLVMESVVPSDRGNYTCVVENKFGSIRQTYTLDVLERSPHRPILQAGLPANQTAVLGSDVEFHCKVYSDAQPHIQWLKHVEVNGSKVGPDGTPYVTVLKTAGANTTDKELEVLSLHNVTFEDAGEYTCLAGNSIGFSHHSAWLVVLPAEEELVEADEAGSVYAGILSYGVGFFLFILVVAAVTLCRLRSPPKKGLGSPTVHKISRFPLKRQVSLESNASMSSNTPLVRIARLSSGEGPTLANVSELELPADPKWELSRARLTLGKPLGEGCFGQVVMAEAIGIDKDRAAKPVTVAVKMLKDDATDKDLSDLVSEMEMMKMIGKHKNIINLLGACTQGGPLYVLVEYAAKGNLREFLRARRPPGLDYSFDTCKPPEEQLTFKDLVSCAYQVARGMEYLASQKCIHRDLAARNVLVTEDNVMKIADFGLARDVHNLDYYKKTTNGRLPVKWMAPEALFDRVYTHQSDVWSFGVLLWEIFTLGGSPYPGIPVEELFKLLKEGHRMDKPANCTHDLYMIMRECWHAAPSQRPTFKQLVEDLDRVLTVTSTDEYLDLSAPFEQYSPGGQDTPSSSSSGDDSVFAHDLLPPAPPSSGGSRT
In short: as §1

GSK3B = biological target: T5, GSK3B (Homo sapiens, UniProt P49841); assay: Liability panel screening by DSF: GSK3B; assay type: binding; settings: DSF, 20 µM, n=2; read-out: Mean ΔTM GSK3B
T5 construct: made in house
T5 sequence (P49841 whole entry, species assumed): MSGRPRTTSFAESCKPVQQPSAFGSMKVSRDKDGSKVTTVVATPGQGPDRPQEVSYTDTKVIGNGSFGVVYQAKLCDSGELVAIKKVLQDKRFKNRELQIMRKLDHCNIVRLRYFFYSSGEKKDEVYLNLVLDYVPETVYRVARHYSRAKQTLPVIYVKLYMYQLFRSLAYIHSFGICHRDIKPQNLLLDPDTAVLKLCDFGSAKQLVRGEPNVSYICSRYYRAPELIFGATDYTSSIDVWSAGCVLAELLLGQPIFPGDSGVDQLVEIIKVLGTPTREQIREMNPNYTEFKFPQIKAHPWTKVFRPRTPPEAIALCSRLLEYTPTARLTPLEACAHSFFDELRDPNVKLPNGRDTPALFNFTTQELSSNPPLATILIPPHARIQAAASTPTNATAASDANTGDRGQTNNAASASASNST

BRD4 = biological target: T6, BRD4 (Homo sapiens, UniProt O60885); assay: Liability panel screening by DSF: BRD4; assay type: binding; settings: DSF, 20 µM, n=2; read-out: Mean ΔTM BRD4
T6 construct: This panel comprised ten highly ligandable kinases and bromodomains; made in house
In short: as §1

BRPF1 = biological target: T7, BRPF1 (Homo sapiens, UniProt P55201); assay: Liability panel screening by DSF: BRPF1; assay type: binding; settings: DSF, 20 µM, n=2; read-out: Mean ΔTM BRPF1
T7 construct: This panel comprised ten highly ligandable kinases and bromodomains; made in house
T7 sequence (P55201 628-732 limits assumed): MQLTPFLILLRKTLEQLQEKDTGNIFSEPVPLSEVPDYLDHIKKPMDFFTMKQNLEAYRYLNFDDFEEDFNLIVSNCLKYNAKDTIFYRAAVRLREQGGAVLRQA
In short: as §1

CSNK1D = biological target: T8, CSNK1D (Homo sapiens, UniProt P48730); assay: Liability panel screening by DSF: CSNK1D; assay type: binding; settings: DSF, 20 µM, n=2; read-out: Mean ΔTM CSNK1D
T8 construct: made in house
T8 sequence (P48730 whole entry, species assumed): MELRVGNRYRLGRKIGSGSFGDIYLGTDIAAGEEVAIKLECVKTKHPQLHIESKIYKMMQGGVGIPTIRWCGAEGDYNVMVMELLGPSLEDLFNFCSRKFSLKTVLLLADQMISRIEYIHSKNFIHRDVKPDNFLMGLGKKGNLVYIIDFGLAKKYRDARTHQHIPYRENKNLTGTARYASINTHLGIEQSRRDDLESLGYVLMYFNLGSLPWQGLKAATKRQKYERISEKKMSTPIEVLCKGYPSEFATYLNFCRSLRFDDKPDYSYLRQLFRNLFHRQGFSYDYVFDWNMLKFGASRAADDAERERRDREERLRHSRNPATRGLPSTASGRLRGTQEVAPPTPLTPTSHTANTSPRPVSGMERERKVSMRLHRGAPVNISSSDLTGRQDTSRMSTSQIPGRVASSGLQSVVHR
In short: as §1

MAPK1 = biological target: T9, MAPK1 (Homo sapiens, UniProt P28482); assay: Liability panel screening by DSF: MAPK1; assay type: binding; settings: DSF, 20 µM, n=2; read-out: Mean ΔTM MAPK1
T9 construct: made in house
T9 sequence (P28482 whole entry, species assumed): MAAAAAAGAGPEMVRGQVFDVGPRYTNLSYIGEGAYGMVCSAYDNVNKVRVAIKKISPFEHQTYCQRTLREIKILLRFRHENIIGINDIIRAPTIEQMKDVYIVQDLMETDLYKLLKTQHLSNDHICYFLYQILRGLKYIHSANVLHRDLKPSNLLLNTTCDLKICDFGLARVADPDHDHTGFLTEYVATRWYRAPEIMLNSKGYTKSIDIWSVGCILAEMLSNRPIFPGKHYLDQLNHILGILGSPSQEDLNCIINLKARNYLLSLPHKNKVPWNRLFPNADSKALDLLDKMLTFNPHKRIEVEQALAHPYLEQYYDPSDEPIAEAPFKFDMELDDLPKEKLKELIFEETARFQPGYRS
In short: as §1

TRIM24 = biological target: T10, TRIM24 (Homo sapiens, UniProt O15164); assay: Liability panel screening by DSF: TRIM24; assay type: binding; settings: DSF, 20 µM, n=2; read-out: Mean ΔTM TRIM24
T10 construct: This panel comprised ten highly ligandable kinases and bromodomains; made in house
T10 sequence (O15164 899-1004 limits assumed): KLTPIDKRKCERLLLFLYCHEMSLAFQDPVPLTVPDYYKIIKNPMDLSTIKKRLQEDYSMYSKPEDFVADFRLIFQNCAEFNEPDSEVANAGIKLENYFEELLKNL
In short: as §1

NR3C1 (GR) = settings: (lit.); ref Supplementary Table 1; read-out: Potency [nM] EC50, NR3C1 (GR); cited from earlier work
[1] = other targets with annotated bioactivities at ≤10 µM in previously published dataset; cited from earlier work
HEK293T cells [2] = assay: Cytotoxicity: metabolic activity (WST-8 / CCK-8 assay); settings: 1 µM, single replicates, DMSO 0.1% = 1.00
HEK293T cells [3] = assay: Cytotoxicity: growth-rate (change in confluence over 24 h); settings: 1 µM, normalized to 0.1% DMSO control, single replicates (n=1...)
HEK293T cells [4] = assay: Cytotoxicity: apoptosis induction (caspase-3/7 DEVD fluorogenic DNA dye); settings: 1 µM, single replicates, DMSO 0.1% = 1.00

CCC(=O)O[C@]1(C(=O)SCF)[C@H](C)C[C@H]2[C@@H]3C[C@H](F)C4=CC(=O)C=C[C@]4(C)[C@@]3(F)[C@@H](O)C[C@@]21C [Fluticasone propionate]
ΔTm at 20 µM (ABL1): 0.19 °C
ΔTm at 20 µM (AURKA): 0.09 °C
ΔTm at 20 µM (CDK2): 0.15 °C
ΔTm at 20 µM (FGFR3): 0.32 °C
ΔTm at 20 µM (GSK3B): -0.55 °C
ΔTm at 20 µM (BRD4): -0.24 °C
ΔTm at 20 µM (BRPF1): -0.69 °C
ΔTm at 20 µM (CSNK1D): -0.0152 °C
ΔTm at 20 µM (MAPK1): -0.034 °C
ΔTm at 20 µM (TRIM24): -0.08 °C
EC50 (NR3C1 (GR)): 1 nM
Reason for exclusion: number of annotated off-targets [1]: > 5 off-targets
Metabolic activity [MA] (HEK293T cells [2]): 0.94 and 0.83 and 1.03 and 1.06 and 1.10 and 1.04
Growth rate [GR] (HEK293T cells [3]): 0.78 and 1.00 and 1.07 and 0.88 (2×) and 0.82
Apoptosis induction [AI] (HEK293T cells [4]): 0.81 and 1.24
